Literature values as cited in US11717525B2, “Transdermal and/or topical delivery system comprising clobazam” (Alpha to Omega Pharmaceutical Consultants, Inc., priority 2015, dated 2023).

How the values were obtained:
[1] = oral administration
[2] = lipophilic in nature
[3] = 25° C., practically insoluble

CN1C(=O)CC(=O)N(c2ccccc2)c2cc(Cl)ccc21 [Clobazam]
absorbed when taken orally [1]: 87% | Log P [2]: around 2.1 | solubility in water [3]: 70 microgram/ml (μg/ml)
